Results as given in PMC7115580 (European Journal of Medicinal Chemistry, 2017).
Counter-ions that a name gives are not always drawn. Like-named read-outs stand apart in the source and are kept apart here.

What was measured:
[1] = metabolites of proguanil ref 32; cited from earlier work
hDHFR = hDHFR (Homo sapiens, UniProt P00374); format: biochemical; details: Lineweaver-Burk plot at 3, 6 and 12 µM; substrate DHF
[2] = biological target: wild type A/M2 proton channel (Influenza A virus, UniProt P0DOF5); format: biochemical; details: 100 μM; TEVC, Xenopus oocytes; data not shown
HeLa cells [3] = system: HeLa cells
[4] = system: human airway epithelial Calu-3 cells; details: data not shown
HeLa cells [5] = system: HeLa cells; remark: listed apart in the source
Reovirus-1 = test: organism not typed; format: cell-based; details: Vero, read-out: Antiviral activity: EC50, Reovirus-1
Punta Toro virus = test: microbe, parasite or virus in culture; format: cell-based; details: Vero, read-out: Antiviral activity: EC50, Punta Toro virus
Para-influenza-3 virus = test: organism not typed; format: cell-based; details: Vero, read-out: Antiviral activity: EC50, Para-influenza-3 virus

Sequence of wild type A/M2 proton channel (P0DOF5 whole entry, looked up): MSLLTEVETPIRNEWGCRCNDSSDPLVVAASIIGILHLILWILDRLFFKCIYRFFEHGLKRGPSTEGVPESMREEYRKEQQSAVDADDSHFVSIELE
Sequence of hDHFR (P00374 whole entry): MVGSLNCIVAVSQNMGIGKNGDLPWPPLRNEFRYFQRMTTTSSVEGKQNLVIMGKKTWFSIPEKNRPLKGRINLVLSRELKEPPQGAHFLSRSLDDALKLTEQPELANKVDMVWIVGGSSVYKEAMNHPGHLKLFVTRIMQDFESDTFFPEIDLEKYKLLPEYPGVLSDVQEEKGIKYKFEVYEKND

SMILES | Cytotoxicity: MCC (HeLa cells [3]; HeLa cells, microscopy) [µM] | Cytotoxicity: MCC (Vero cells; Vero cells, microscopy) [µM] | other results
N=C(N)NC(=N)Nc1ccc(Cl)cc1 [1-(4-chlorophenyl)biguanide] | – | – | Share of the total drug concentration in plasma [1]: ~23%
CC1(C)N=C(N)N=C(N)N1c1ccc(Cl)cc1 [Compound 1, cycloguanil, reference compound] | >100 | >100 | Inhibition pattern towards the substrate (hDHFR): competitive inhibition pattern; Inhibition of wild type M2 channel [2]: neither of the three compounds significantly inhibited; Cytotoxicity MCC [4]: > 100 µM; Share of the total drug concentration in plasma [1]: about 30%
CC1(C)N=C(N)N=C(N)N1c1ccccc1 [Compound 2] | >100 | >100 | –
Cc1ccc(N2C(N)=NC(N)=NC2(C)C)cc1 [Compound 3] | >100 | >100 | –
COc1ccc(N2C(N)=NC(N)=NC2(C)C)cc1 [Compound 4] | >100 | >100 | –
CC1(C)N=C(N)N=C(N)N1c1ccc(F)cc1 [Compound 5] | >100 | >100 | –
CC1(C)N=C(N)N=C(N)N1c1ccc(Br)cc1 [Compound 6] | >100 | >100 | –
CC1(C)N=C(N)N=C(N)N1c1ccc([N+](=O)[O-])cc1 [Compound 7] | >100 | >100 | –
CC1(C)N=C(N)N=C(N)N1c1ccc(C(=O)O)cc1 [Compound 8] | >100 | >100 | –
CCOC(=O)c1ccc(N2C(N)=NC(N)=NC2(C)C)cc1 [Compound 9] | >100 | >100 | –
CC1(C)N=C(N)N=C(N)N1c1ccccc1Cl [Compound 10] | >100 | >100 | –
CC1(C)N=C(N)N=C(N)N1c1cccc(Cl)c1 [Compound 11] | >100 | – | Cytotoxicity MCC [4]: > 100 µM
CC1(C)N=C(N)N=C(N)N1c1cccc(F)c1 [Compound 12, 4,6-Diamino-2,2-dimethyl-1-(3-fluorophenyl)-1,2-dihydrotriazine hydrochloride] | – | – | Cytotoxicity: MCC (HeLa cells [3]; human): ≥100 µM
CC1(C)N=C(N)N=C(N)N1c1cccc(Br)c1 [Compound 13] | ≥100 | >100 | Cytotoxicity MCC [4]: > 100 µM
CC1(C)N=C(N)N=C(N)N1c1cccc(C(F)(F)F)c1 [Compound 14] | ≥100 | – | Inhibition of wild type M2 channel [2]: neither of the three compounds significantly inhibited; Cytotoxicity MCC (HeLa cells [5]; dihydrofolic acid 1.0 μM): 20 µM; Cytotoxicity MCC (HeLa cells [5]; dihydrofolic acid 2.6 μM): 20 µM; Cytotoxicity MCC (HeLa cells [5]; dihydrofolic acid 16 μM): 20 µM; Cytotoxicity MCC (HeLa cells [5]; dihydrofolic acid 40 μM): 20 µM; Cytotoxicity MCC (HeLa cells [5]; dihydrofolic acid 400 μM): 20 µM; Cytotoxicity MCC (HeLa cells [5]; human): 20 µM; Cytotoxicity MCC (HeLa cells [5]; independent of whether dihydrofolic acid was present or not): 20 µM; Cytotoxicity MCC [4]: > 100 µM
CC1(C)N=C(N)N=C(N)N1c1ccc(Cl)cc1Cl [Compound 15] | >100 | >100 | –

SMILES | Cytotoxicity: MCC (HeLa cells [3]; HeLa cells, microscopy) [µM] | Cytotoxicity: MCC (Vero cells; Vero cells, microscopy) [µM] | other results
CC1(C)N=C(N)N=C(N)N1c1ccc(Cl)c(Cl)c1 [Compound 16] | >100 | – | Inhibition of wild type M2 channel [2]: neither of the three compounds significantly inhibited; Cytotoxicity MCC [4]: > 100 µM
CC1(C)N=C(N)N=C(N)N1c1cc(C(F)(F)F)cc(C(F)(F)F)c1 [Compound 17, 4,6-Diamino-2,2-dimethyl-1-(3,5-ditrifluoromethylphenyl)-1,2-dihydrotriazine hydrochloride] | – | – | Cytotoxicity: MCC (HeLa cells [3]; human): ≥100 µM; Cytotoxicity: MCC (Vero cells; African green monkey): >100 µM
CCC1(C)N=C(N)N=C(N)N1c1ccc(Cl)cc1 (stereo not drawn) [Compound 18] | >100 | >100 | –
CC(C)C1(C)N=C(N)N=C(N)N1c1ccc(Cl)cc1 (stereo not drawn) [Compound 19] | >100 | >100 | –
NC1=NC2(CCCC2)N(c2ccc(Cl)cc2)C(N)=N1 [Compound 20] | >100 | >100 | –
NC1=NC2(CCCC2)N(c2cccc(Cl)c2)C(N)=N1 [Compound 21, 1-(3-Chlorophenyl)-2,2-cyclotetramethylene-4,6-diamino-1,2-dihydrotriazine hydrochloride] | ≥100 | >100 | –
NC1=NC2(CCCC2)N(c2cccc(C(F)(F)F)c2)C(N)=N1 [Compound 22, 2,2-Cyclotetramethylene-4,6-diamino-1-(3-trifluoromethylphenyl)-1,2-dihydrotriazine hydrochloride] | ≥100 | >100 | –
NC1=NC2(CCCCC2)N(c2cccc(Cl)c2)C(N)=N1 [Compound 24] | ≥100 | >100 | –
NC1=NC2(CCCCC2)N(c2cccc(C(F)(F)F)c2)C(N)=N1 [Compound 25, 2,2-Cyclopentamethylene-4,6-diamino-1-(3-trifluoromethylphenyl)-1,2-dihydrotriazine hydrochloride] | ≥100 | >100 | Cytotoxicity MCC [4]: > 100 µM
CCCC1N=C(N)N=C(N)N1c1ccc(Cl)cc1 (stereo not drawn) [Compound 27] | >100 | >100 | –
NC1=NC(c2ccccc2)N(c2ccc(Cl)cc2)C(N)=N1 (stereo not drawn) [Compound 28] | – | >100 | –
CC1(C)N=C(N)N=C(Nc2ccc(Cl)cc2)N1 [Compound 29] | >100 | >100 | –
[H]/N=C(\N/C(=N/[H])Nc1ccc(Cl)cc1)NC(C)C [Compound 30, proguanil, reference compound] | >100 | 20 | –
CCc1nc(N)nc(N)c1-c1ccc(Cl)cc1 [Compound 32, pyrimethamine, reference compound] | ≥100 | – | Cytotoxicity MCC [4]: > 100 µM
COc1c(C)c2c(c(O)c1C/C=C(\C)CCC(=O)O)C(=O)OC2 [Mycophenolic acid] | – | – | EC50 (Reovirus-1): 1.8 µM; EC50 (Punta Toro virus): 20 µM
NC(=O)c1ncn([C@@H]2O[C@H](CO)[C@@H](O)[C@H]2O)n1 [Ribavirin] | – | – | EC50 (Para-influenza-3 virus): 112 µM
